Holding throughout (assay type): cell-based, mouse
The subject of one series is IκBα. Description: Western blot for IκBα degradation and phosphorylation. On the procedure:
(§1) To determine protein expression levels, the cytoplasmic and whole cell extracts were prepared and were fractionated using 10% sodium dodecyl sulphate polyacrylamide gel electrophoresis (SDSPAGE). After electrophoresis, the proteins were transferred to nitrocellulose membranes, blotted with the relevant antibodies, and detected with enhanced chemiluminescence reagent (GE Healthcare, Piscataway, N.J.).

Series [1] has as its system p65 transfected RAW 264.7 cells. In words: RANKL-induced osteoclastogenesis after transfection of p65 plasmid. Conditions: 5 mM calebin A, 5 nM RANKL, 5 days. As to the method: To determine the role of NF-κB/p65 expression on calebin A-induced inhibition osteoclastogenesis, RAW 264.7 cells (5×10^5 cells/well) were plated in 6-well plates and transiently transfected by the calcium phosphate method with pNF-κB ([…]) and control plasmid pCMVFLAG1 DNA for 24 h. The medium was then replaced, and the cells were treated with RANKL (5 nM) and or calebin A (5 mM) for 5 days. All cells were subjected to TRAP staining using the leukocyte acid phosphatase kit.

The next series has as its system NF-κB activation. Description: Electrophoretic mobility shift assay for NFκB. On the procedure: To assess NFκB activation in the nuclear extracts, EMSA was carried out using the procedure described by Y. Li, S. Li, Y. Han, J. Liu, J. Zhang, F. Li, Y. Wang, X. Liu, L. Yao, Eur. J. Pharmacol. 591 (2008) 252-258. In brief, nuclear extracts from untreated and RANKL-treated RAW 264.7 cells were incubated with the 32P-end-labeled 45-mer double-stranded NFκB oligonucleotide ([…] protein with 16 fM DNA) from the HIV long terminal repeat, 5′-[…]-3′(boldface indicates NFκB binding sites), for 30 min at 37° C. The DNA-protein complex formed was separated from free oligonucleotides on 6.6% native polyacrylamide gels. The dried gels were visualized with a Storm 820 molecular imager (Amersham, Piscataway, N.J., USA), and radioactive bands were quantified using a densitometer and Image Quant software ([…]).
(A gel shift assay detects complexes by their altered migration in electrophoresis.)

Series [2] relates to RAW 264.7 cells. In words: Osteoclast differentiation assay, RANKL-induced (TRAP staining). As to the method:
(§2) To determine the effects of calebin A on RANKL-induced osteoclast differentiation, the RAW264.7 cells were cultured at a density of 5×10^3 cells per well in 24-well plates and allowed to adhere overnight. The medium was then replaced and the cells were treated with 5 nM RANKL for 5 days. After the incubation, the cells were subjected to TRAP staining using leukocyte acid phosphatase kit. For co-culture experiments with cancer cells, RAW 264.7 cells were seeded at a density of 5×10^3 cells per well and allowed to adhere overnight. U266 or MDA-MB-231 cells, at a density of 1×10^3 cells per well, were added to the RAW 264.7 cells the following day. The wells were treated with calebin A, and co-cultured for 5 days before being subjected to TRAP staining. For conditioned medium experiments, RAW 264.7 cells were seeded at a density of 5×10^3 cells per well and allowed to adhere overnight. The following day, the medium was replaced with ⅘ of RAW 264.7 medium (DMEM/F12) plus ⅕ of conditioned medium from MDA-MB-231 or U266 cells. For that procedure, the supernatant of cultured cancer cells that had been centrifuged was used. Finally, the RAW264.7 cells were cultured for 5 days and subjected to TRAP staining and an electrophoretic mobility shift assay (EMSA).

Series [3] has as its system RAW 264.7 cells incubated in the presence of MDA-MB-231 cells. Description: Osteoclastogenesis induced by co-culture with MDA-MB-231 breast cancer cells (TRAP staining). Conditions: calebin A 5 mM, co-incubated 5 days. As to the method: as §2
Series [4] has as its system NFATc1, TRAP, cathepsin K and calcitonin R expression. Description: Western blot for RANKL-induced osteoclastogenesis-related marker expression. On the procedure: as §1
NFATc1 plays a major role in the regulation of osteoclastogenesis. […] Basically, activation and nuclear translocation of NFATc1 and osteoclast differentiation are mediated by the expression of large number of marker genes, including TRAP, cathepsin K and calcitonin R, regulated by NFATc1. These genes are activated by the RANKL-mediated signalling pathway. Therefore, the effect of calebin A on the expression of RANKL-induced osteoclastogenesis related marker genes, were also examined.
A general note: In western blotting, separated proteins are transferred to a membrane and probed.

In series [5] the test system is RAW 264.7 cells. Description: Cell proliferation assay (MTT). Conditions: 1, 2 or 5 mM calebin A, days 1, 3 and 5. As to the method:
The effects of calebin A on the proliferation of RAW 264.7 cells were determined by measuring mitochondrial dehydrogenase activity with 3-[4,5-dimethylthiazol-2-yl]-2,5-diphenyl tetrazolium bromide (MTT) as the substrate as described in B. Sung, S. Prasad, V. R. Yadav, S. C. Gupta, S. Reuter, N. Yamamoto, A. Murakami, B. B. Aggarwal, PloS One 8 (2013) e64118. In brief, 3000 RAW264.7 cells (in 0.1 ml media) per well were incubated with various concentrations of calebin A, in triplicate, in 96-well plates at 37° C. for 1, 3, or 5 days. At each interval, MTT solution was added to each well, and the plates were incubated for 2 h at 37° C. An extraction buffer (100 mM) comprised of 20% sodium dodecyl sulphate (SDS) and 50% dimethyl formamide was added, and the cells were incubated overnight at 37° C. to dissolve the formazan formed during the reaction. The absorbance of the coloured product was then measured at 570 nm using a 96-well multiscanner (MRX Revelation, Dynex Technologies, Chantilly, Va.).

The subject of series [6] is RAW 264.7 cells incubated in the presence of U266 cells. Description: Osteoclastogenesis induced by co-culture with U266 multiple myeloma cells (TRAP staining). The following applies: calebin A 5 mM, co-incubated 5 days. As to the method: as §2
Series [7] has as its system RANK and c-Fms expression. Description: Immunoblot for M-CSF-induced osteoclast differentiation markers. The following applies: 50 mM calebin A 8 h, 20 ng/mL M-CSF 24 h. As to the method:
as §1
Further to examine the possible role of calebin A in the regulation of osteoclast differentiation in early stage, the RAW 264.7 cells were pre-treated with calebin A and induced by M-CSF for 24 h.

A further series concerns ERK1/2 phosphorylation. In words: Western blot for phospho-ERK1/2. Conditions: calebin A pretreatment 8 h, RANKL 10 nM. On the procedure:
as §1

The mark [8] stands for this setting: calebin A 5 mM, measured on day 5.

Regarding `COc1cc(/C=C/C(=O)COC(=O)/C=C/c2ccc(O)c(OC)c2)ccc1O` [Calebin A], the “IκBα phosphorylation at serines 32 and 36 induced by RANKL and ALLN co-treatment” value in the series with IκBα (50 mM calebin A 8 h, ALLN 30 min, RANKL 10 nM 15 min) was “inhibited the induction of phosphorylation”. In addition, the “RANKL-induced IκBα degradation (cytoplasmic, western blot)” value in the series on IκBα (50 mM calebin A 8 h pretreatment, 10 nM RANKL) is on record as “complete inhibition of IκBα degradation”. The “IκBα phosphorylation by calebin A alone” value in the series with IκBα (calebin A alone, no RANKL) is “did not induce phosphorylation of IκBα”. In addition, in the series with IκBα (calebin A pretreatment (8 h), 10 nM RANKL), the “RANKL-induced IκBα phosphorylation” value is recorded as “phosphorylation was completely inhibited”. In [1], the “RANKL induced osteoclastogenesis in cells transfected with control plasmid” value is given as “almost completely inhibited” and the “RANKL induced osteoclastogenesis in p65 transfected RAW 264.7 cells” value was “minimally inhibited”. Further, in the series with NF-κB activation (50 mM calebin A without RANKL for 8 h), the “NF-κB activation without RANKL (EMSA)” value is reported as “No effect on the activation of NF-κB”. For the same compound, the “RANKL-induced NF-κB activation (EMSA), dose dependence” value with NF-κB activation (dose of 50 mM, 8 h pretreatment, RANKL 30 min) is listed as “completely suppressed NF-κB activation”. Besides, the “RANKL-induced NF-κB activation (EMSA)” value in the series with NF-κB activation (pretreated with various concentrations for 8 h or 50 mM for various times, then RANKL 10 nM 30 min) is “completely abrogated RANKL-induced NF-κB activation”. Further, the “Number of TRAP-positive osteoclasts, time course” value in the series with RAW 264.7 cells [2] (RANKL 5 nM plus calebin A for 3, 4 or 5 days) is reported as “decreased the number of TRAP-positive osteoclasts in a dose-dependent manner”. Besides, in the series with RAW 264.7 cells [2] (setting [8]), the “Osteoclast formation, calebin A added 1-2 days after RANKL stimulation” value was “substantially inhibited osteoclast formation”; the “Osteoclast formation, calebin A added at days 3 and 4 after RANKL exposure” value is recorded as “no longer prevented osteoclast formation”. For the same compound, the “Inhibition of TRAP-positive osteoclast number at highest dose” value in the series with RAW 264.7 cells [2] (dose of 5 mM, all time points (3, 4, 5 days)) is “strongest inhibition”. Besides, in series [3], the “MDA-MB-231 cell-induced differentiation of RAW264.7 cells into osteoclasts” value is listed as “inhibited this differentiation”. Also, in [4] (50 mM calebin A 8 h, 10 nM RANKL 24 h), the “RANKL-induced NFATc1, TRAP, cathepsin K and calcitonin R expression” value was “inhibits the RANKL-induced NFATc1, TRAP, cathepsin K and calcitonin R expression”. Also, in series [4] (50 mM calebin A 8 h pretreatment, 10 nM RANKL 24 h), the “RANKL-induced NFATc1 expression” value is “abolished the RANKL-induced NFATc1 expression”. The “Expression of TRAP, cathepsin K and calcitonin R with calebin A alone” value in series [4] (calebin A alone, no RANKL) is “no effect of calebin A alone”. Also, the “Proliferation of RAW 264.7 cells (MTT)” value in the series on RAW 264.7 cells [5] was “did not significantly affect the proliferation of RAW 264.7 cells”. Moreover, the “U266 cell-induced differentiation of RAW264.7 cells into osteoclasts” value in [6] is reported as “A similar pattern was observed”. In [7], the “M-CSF-induced expression of RANK” value is on record as “downmodulate M-CSF-induced expression of RANK” and the c-Fms expression entry is “no significant variation”. Besides, in the series with ERK1/2 phosphorylation, the “RANKL-induced ERK1/2 phosphorylation” value was “did not inhibit the RANKL-induced activation of ERK phosphorylation”.

Source of the values: patent publication US9539232B1, “Calebin A for osteoporosis” (priority 2016, dated 2017).
